Where only a bound is given, the exact number is not on record here.

For data set [1], the system named is HeLa. As to the kind of experiment: Growth inhibition of human HeLa cells at 10 uM after 72 hrs by MTT assay relative to control. Format: functional. Conditions: read-out: GI. A general note: Tetrazolium assays rely on reduction of a dye to a coloured formazan, in cell work by metabolically active cells.
Data set [2] has as its system MCF7. As to the kind of experiment: Growth inhibition of human MCF7 cells at 30 uM after 72 hrs by MTT assay relative to control. Format: functional. Conditions: MCF7, 72 h, read-out: GI.
In data set [3] the test system is A2780. As to the kind of experiment: Antiproliferative activity against human A2780 cells after 72 hrs by MTT assay. It is filed as functional, cell-based. Conditions: A2780, 72 h.
For data set [4], the system named is HeLa. As to the kind of experiment: Growth inhibition of human HeLa cells at 30 uM after 72 hrs by MTT assay relative to control. Format: functional. Conditions: read-out: GI.
Data set [5] has as its system A2780. As to the kind of experiment: Growth inhibition of human A2780 cells at 30 uM after 72 hrs by MTT assay relative to control. It is filed as functional. Conditions: A2780, 72 h, read-out: GI.
Data set [6] relates to HeLa. As to the kind of experiment: Antiproliferative activity against human HeLa cells after 72 hrs by MTT assay. Format: functional, cell-based.
Data set [7] in a line: Growth inhibition of mouse NIH/3T3 cells at 10 uM after 72 hrs by MTT assay relative to control. It is filed as cell-based, NIH3T3. Conditions: read-out: GI.
Data set [8] deals with A2780. As to the kind of experiment: Growth inhibition of human A2780 cells at 10 uM after 72 hrs by MTT assay relative to control. Format: functional. Conditions: A2780, 72 h, read-out: GI.
Data set [9] in a line: Growth inhibition of mouse NIH/3T3 cells at 30 uM after 72 hrs by MTT assay relative to control. It is filed as cell-based, NIH3T3. Conditions: read-out: GI.
Data set [10] deals with MCF7. As to the kind of experiment: Antiproliferative activity against human MCF7 cells after 72 hrs by MTT assay. It is filed as functional, cell-based. Conditions: MCF7, 72 h.
Data set [11] concerns MCF7. As to the kind of experiment: Growth inhibition of human MCF7 cells at 10 uM after 72 hrs by MTT assay relative to control. It is filed as functional. Conditions: MCF7, 72 h, read-out: GI.

Take `CCC[C@H]1[C@@H]2CCc3cc(OCc4cn([C@@H]5O[C@H](COC(C)=O)[C@@H](OC(C)=O)[C@H](OC(C)=O)[C@H]5OC(C)=O)nn4)ccc3[C@H]2CC[C@]1(C)/C=N/O`: the inhibition of growth at 10 µM was found to be 20.4% with HeLa [1], 69.5% with A2780 [8] and 46.7% in the data set with MCF7 [11]. In addition, the inhibition of growth at 30 µM in the data set on MCF7 [2] came to 67.7%; in the data set on HeLa [4] it was 40%; in the data set on A2780 [5], 76.7%. Further, the concentration for half-maximal inhibition (IC50) (usually the concentration that inhibits the measured activity by half) was 5.3 µM in the data set with A2780 [3], over 30 µM in the data set on HeLa [6] and 10.7 µM in the data set with MCF7 [10]. Further, in data set [7], the inhibition at 72 h, 10 µM was under 20%. Further, the inhibition at 72 h, 30 µM in data set [9] came to 28.4%.

For `CCC[C@H]1[C@@H]2CCc3cc(OCc4cn([C@H]5O[C@H](COC(C)=O)[C@@H](OC(C)=O)[C@H](OC(C)=O)[C@@H]5OC(C)=O)nn4)ccc3[C@H]2CC[C@]1(C)/C=N/O`, the inhibition of growth at 10 µM in the data set on HeLa [1] was determined as 52.4%; in the data set on A2780 [8] it was 69.5%; in the data set on MCF7 [11] it was 53.9%. The inhibition of growth at 30 µM in the data set with MCF7 [2] was 65.9%; with HeLa [4], 89.6%; in the data set on A2780 [5], 86.4%. In addition, the half-inhibitory concentration (IC50) was 6.6 µM in the data set on A2780 [3], 8.9 µM in the data set on HeLa [6] and 9.4 µM with MCF7 [10]. For the same compound, the inhibition at 72 h, 10 µM in data set [7] is 27.3%. Also, the inhibition at 72 h, 30 µM in [9] was 34.8%.

As to `CCC[C@H]1[C@@H]2CCc3cc(OCc4cn(C[C@H]5O[C@H](OC)[C@H](OC(=O)c6ccccc6)[C@@H](OC(=O)c6ccccc6)[C@@H]5OC(=O)c5ccccc5)nn4)ccc3[C@H]2CC[C@]1(C)CO`, the inhibition of growth at 10 µM with HeLa [1], with A2780 [8] and in the data set on MCF7 [11] was under 20% throughout. The inhibition of growth at 30 µM in the data set on MCF7 [2], in the data set on HeLa [4] and in the data set on A2780 [5] was under 20% throughout.

For `CCC[C@H]1[C@@H]2CCc3cc(OCc4cn([C@@H]5O[C@H](COC(C)=O)[C@H](OC(C)=O)[C@H](OC(C)=O)[C@H]5OC(C)=O)nn4)ccc3[C@H]2CC[C@]1(C)/C=N/O`, the inhibition of growth at 10 µM is 31.5% in the data set on HeLa [1], 59.3% in the data set on A2780 [8] and 59.1% with MCF7 [11]. Further, the inhibition of growth at 30 µM in the data set on MCF7 [2] was found to be 71.5%; with HeLa [4] it was 61.9%; with A2780 [5], 85.2%. For the same compound, the half-maximal inhibitory concentration (IC50) was 8.8 µM with A2780 [3], 20.5 µM in the data set with HeLa [6] and 8 µM in the data set with MCF7 [10]. The inhibition at 72 h, 10 µM in data set [7] was under 20%. Besides, in [9], the inhibition at 72 h, 30 µM worked out at 25.5%.

As for `CCC[C@H]1[C@@H]2CCc3cc(OCc4cn([C@@H]5O[C@H](CO)[C@@H](O)[C@H](O)[C@H]5O)nn4)ccc3[C@H]2CC[C@]1(C)CO`, the inhibition of growth at 10 µM in the data set with HeLa [1], in the data set on A2780 [8] and with MCF7 [11] was under 20% each time. For the same compound, the inhibition of growth at 30 µM in the data set with MCF7 [2], with HeLa [4] and with A2780 [5] was under 20% throughout.

`CCC[C@H]1[C@@H]2CCc3cc(OCc4cn(C[C@H]5O[C@H](OC)[C@@H](OC(=O)c6ccccc6)[C@@H](OC(=O)c6ccccc6)[C@@H]5OC(=O)c5ccccc5)nn4)ccc3[C@H]2CC[C@]1(C)CO`: the inhibition of growth at 10 µM in the data set on HeLa [1], with A2780 [8] and in the data set with MCF7 [11] was under 20% each time. Further, the inhibition of growth at 30 µM with MCF7 [2], in the data set with HeLa [4] and in the data set on A2780 [5] was under 20% in each case.

Consider `CCC[C@H]1[C@@H]2CCc3cc(OCc4cn(C[C@H]5O[C@@H](OC)[C@H](OC(=O)c6ccccc6)[C@@H]5OC(=O)c5ccccc5)nn4)ccc3[C@H]2CC[C@]1(C)/C=N/O`, for which the results for the inhibition of growth at 10 µM in the data set on HeLa [1], with A2780 [8] and in the data set with MCF7 [11] were 24.3%, under 20% and under 20%, respectively. Moreover, the inhibition of growth at 30 µM in the data set on MCF7 [2], in the data set with HeLa [4] and with A2780 [5] was under 20% in each case.

Take `CCC[C@H]1[C@@H]2CCc3cc(OCc4cn([C@H]5O[C@H](COC(C)=O)[C@@H](OC(C)=O)[C@H](OC(C)=O)[C@@H]5OC(C)=O)nn4)ccc3[C@H]2CC[C@]1(C)CO`: the inhibition of growth at 10 µM with HeLa [1] amounted to 51.9%; in the data set with A2780 [8] it was 34.9%; in the data set with MCF7 [11], 26.3%. Besides, the inhibition of growth at 30 µM turned out to be 54.3% in the data set on MCF7 [2], 41.5% in the data set on HeLa [4] and 36.5% in the data set with A2780 [5].

For the compound `CCC[C@H]1[C@@H]2CCc3cc(OCc4cn([C@@H]5O[C@H](COC(C)=O)[C@@H](OC(C)=O)[C@H](OC(C)=O)[C@H]5OC(C)=O)nn4)ccc3[C@H]2CC[C@]1(C)CO`, the inhibition of growth at 10 µM is 34.5% in the data set on HeLa [1], 21% in the data set on A2780 [8] and 27.4% with MCF7 [11]. The inhibition of growth at 30 µM in the data set with MCF7 [2] worked out at 45.5%; with HeLa [4] it was 23.9%; with A2780 [5] it was 19.5%.

Regarding `CCC[C@H]1[C@@H]2CCc3cc(OCc4cn([C@@H]5O[C@H](COC(C)=O)[C@H](OC(C)=O)[C@H](OC(C)=O)[C@H]5OC(C)=O)nn4)ccc3[C@H]2CC[C@]1(C)CO`, the inhibition of growth at 10 µM was 23.9% with HeLa [1], under 20% in the data set with A2780 [8] and under 20% with MCF7 [11]. In addition, the inhibition of growth at 30 µM with MCF7 [2] is 61.9%; with HeLa [4], 31.8%; in the data set on A2780 [5], 32.7%.

Take `CCC[C@H]1[C@@H]2CCc3cc(OCc4cn(C[C@H]5O[C@H](OC)[C@H](OC(=O)c6ccccc6)[C@@H](OC(=O)c6ccccc6)[C@@H]5OC(=O)c5ccccc5)nn4)ccc3[C@H]2CC[C@]1(C)/C=N/O`: the inhibition of growth at 10 µM with HeLa [1] was under 20%; in the data set with A2780 [8] it was 28.4%; with MCF7 [11] it was under 20%. For the same compound, the inhibition of growth at 30 µM in the data set with MCF7 [2] is under 20%; in the data set with HeLa [4] it was under 20%; in the data set with A2780 [5] it was 45.7%.

Take `CCC[C@H]1[C@@H]2CCc3cc(OCc4cn([C@@H]5O[C@H](CO)[C@@H](O)[C@H](O)[C@H]5O)nn4)ccc3[C@H]2CC[C@]1(C)/C=N/O`: the inhibition of growth at 10 µM in the data set with HeLa [1], in the data set with A2780 [8] and in the data set on MCF7 [11] was under 20% throughout. Also, the values for the inhibition of growth at 30 µM with MCF7 [2], in the data set with HeLa [4] and in the data set on A2780 [5] were under 20%, 31.5% and 57.9%, respectively. Besides, the results for the IC50 in the data set with A2780 [3], with HeLa [6] and in the data set with MCF7 [10] were 27.4 µM, over 30 µM and over 30 µM, respectively.

Take `CCC[C@H]1[C@@H]2CCc3cc(OCc4cn(C[C@H]5O[C@@H](OC)[C@H](OC(=O)c6ccccc6)[C@@H]5OC(=O)c5ccccc5)nn4)ccc3[C@H]2CC[C@]1(C)CO`: the inhibition of growth at 10 µM in the data set on HeLa [1], in the data set with A2780 [8] and with MCF7 [11] was under 20% throughout. The inhibition of growth at 30 µM in the data set on MCF7 [2], with HeLa [4] and with A2780 [5] was under 20% each time.

Turning to `CCC[C@H]1[C@@H]2CCc3cc(OCc4cn(C[C@H]5O[C@H](OC)[C@@H](OC(=O)c6ccccc6)[C@@H](OC(=O)c6ccccc6)[C@@H]5OC(=O)c5ccccc5)nn4)ccc3[C@H]2CC[C@]1(C)/C=N/O`, the inhibition of growth at 10 µM in the data set on HeLa [1], with A2780 [8] and in the data set with MCF7 [11] was under 20% in each case. The inhibition of growth at 30 µM in the data set with MCF7 [2], with HeLa [4] and in the data set on A2780 [5] was under 20% throughout.

These data come from ChEMBL document CHEMBL4014294, “Synthesis and in vitro investigation of potential antiproliferative monosaccharide-d-secoestrone bioconjugates” (Bioorg Med Chem Lett, 2017).
